Measured values: article PMC10758121, “Miconazole-like Scaffold is a Promising Lead for Naegleria fowleri-Specific CYP51 Inhibitors” (Journal of Medicinal Chemistry, 2023)
Like-named read-outs stand apart in the source and are kept apart here.

Legend:
[1] = biological target: NfCYP51 (Naegleria fowleri, UniProt A0A2H4A2U9); experiment: biochemical; assay type: binding
[2] = tested on: N. fowleri European KUL strain; experiment: Naegleria cell-based assay, dose–response (CellTiter-Glo viability, 48 h)
Procedure: The compounds were screened against N. fowleri European KUL strain axenically cultured in Nelson’s medium supplemented with 10% fetal bovine serum at 37 °C.[59] The screening assay in 96- and 384-well formats (Z’-value of 0.95 ± 0.1) was performed as described elsewhere.[9] All the experiments were performed using trophozoites harvested during the logarithmic phase of growth.[60] The primary screen was performed in duplicate at 10 μM in a 384-well format (2,500 amoebae/well). The dose–response curves were generated in triplicate for the follow up compounds by serial dilution of compounds from 50 to 0.39 μM in a 96-well plate with 10,000 amoebae/well. Assay plates were incubated for 48 h at 37 °C, and cell viability was determined by a CellTiter-Glo Luminescent Cell Viability Assay.[9],[58]

[3] = tested on: N. fowleri European KUL strain; experiment: Primary phenotypic organism-based screen at 10 μM (384-well); assay type: cell-based; conditions: Naegleria fowleri
[4] = tested on: N. fowleri European KUL strain; conditions: amoebicidal effect; cited from earlier work
[5] = Single-dose PK experiment of 2a; conditions: for concentration at 30 min: intraperitoneal, 20 mg/kg
[6] = cited from earlier work
[7] = in vivo; conditions: female, C57BL/6, mouse, ip, 40 mg/kg
Procedure: All mice were maintained on a 12 h light/dark cycle in a temperature-controlled environment with access to food and water ad libitum. […] Mice were sacrificed 1 h following the drug administration, and blood and brain samples were collected. Blood (100 μL) was quickly added with 5-fold H2O/CH3CN 8:2, centrifugated to 2500 rpm for 15 min, and plasma was collected. Brain was homogenized in 0.5 mL of distilled water and added with 2 mL of CH3CN. Thus, homogenates were centrifugated to 2500 rpm for 15 min and the supernatants were collected. Plasma and brain supernatants were stored at −20 °C until analysis.
All experiments involving animals were carried out according to Sapienza University’s Ethics Committee, approval code 890/2021-PR, approved on 17 November 2021. Animal care followed the IASP and European Community (EC L358/1, 18/12/86) guidelines on using and protecting animals in experimental research. Eight week-old female C57BL/6 mice were used for the experiments (Charles River, Lecco, Italy).
The targeted analysis was performed by a Waters system composed of a 1525 μ HPLC (Milford, MA, USA), coupled with a Quattro Micro Tandem MS/MS with an ESI source (Micromass, Manchester UK), using a Supelco Ascentis Express C18 (15 cm × 2.1 mm) 2.7 μm analytical column, A (deionized water/formic acid 0.02%) and B (acetonitrile/formic acid 0.02%) as mobile phase, with the following optimized elution binary gradient with linear interpolation: 0–1 min, 30% B; 1–16 min, 45% B; 16–17 min, 45% B; 17–18 min, 30% B; 18–38 min, 30% B to equilibrate the column, flow rate 0.20 mL min^–1. […] Data acquisition, data handling, and instrument control were performed by MassLynx Software 4.1 v (Data Handling System for Windows, Micromass, UK).
Calibration curves were calculated with equal weighted least-squares linear regression analysis of the MRM peak area against the standard nominal concentration. […] The matrix effect (ME) for each compound, in brain (B) and in plasma (P), was evaluated by comparing the matrix-matching calibration curve (2.5, 10, 25, and 50 ng mL^–1) with the corresponding calibration curve.[65]
The biological samples were appropriately diluted with the mobile phase (A:B, 70:30, v:v), filtered at 0.22 μm, and analyzed in triplicate (25 μL injected).

[8] = tested on: Naegleria; conditions: mouse model of PAM, 20 mg/kg dose; cited from earlier work
[9] = 0.5 μM NfCYP51, inhibitor 0.025–0.5 μM, ≤ values estimated from linear dependence of binding, read-out: KD
[10] = concentration for 50% growth inhibition from dose–response curves, triplicate, axenically cultured N. fowleri trophozoites
[11] = 10 µM, supplement CSV, read-out: % Inhibition at 10 µM against N. fowleri KUL strain
[12] = Table S1, mean of two biological duplicates, read-out: % Inhibition at 10 µM
[13] = average brain distribution coefficient (brain/plasma ratio)

Chain of NfCYP51 (A0A2H4A2U9 entry or part of it): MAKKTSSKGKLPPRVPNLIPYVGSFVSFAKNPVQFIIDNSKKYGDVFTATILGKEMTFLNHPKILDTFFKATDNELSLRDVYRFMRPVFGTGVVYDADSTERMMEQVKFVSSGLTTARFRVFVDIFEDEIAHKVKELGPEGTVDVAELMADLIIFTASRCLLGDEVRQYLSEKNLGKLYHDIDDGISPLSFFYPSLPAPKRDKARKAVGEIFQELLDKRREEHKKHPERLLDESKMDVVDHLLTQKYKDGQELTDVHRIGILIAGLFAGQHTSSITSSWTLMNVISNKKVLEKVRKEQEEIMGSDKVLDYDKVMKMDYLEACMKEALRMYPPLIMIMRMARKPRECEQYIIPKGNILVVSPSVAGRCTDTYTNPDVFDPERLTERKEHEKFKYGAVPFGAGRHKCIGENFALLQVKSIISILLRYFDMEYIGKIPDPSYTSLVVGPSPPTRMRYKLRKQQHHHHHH

| SMILES | Kd [1, 9] | EC50 [2, 10] | inhibition at 10 µM [3, 11] | inhibition at 10 µM [3, 12] | further results |
| --- | --- | --- | --- | --- | --- |
| O=C(O[C@@H](Cn1ccnc1)c1ccc(Cl)cc1Cl)c1cccc(C(F)(F)F)c1 [Compound 5a, (R)-1-(2,4-Dichlorophenyl)-2-(1H-imidazol-1-yl)ethyl 3-(Trifluoromethyl)benzoate] | 0.161 ± 0.008 µM | 10.2 ± 0.03 µM | – | – | – |
| O=C(O[C@@H](Cn1ccnc1)c1ccc(F)cc1)c1cc(Cl)cc(Cl)c1 [Compound 4a, (R)-1-(4-Fluorophenyl)-2-(1H-imidazol-1-yl)ethyl 3,5-Dichlorobenzoate] | – | 21.5 ± 0.04 µM | – | – | – |
| O=C(O[C@H](Cn1ccnc1)c1ccc(Cl)cc1Cl)c1ccc(Cl)cc1Cl [Compound 6b, (S)-1-(2,4-Dichlorophenyl)-2-(1H-imidazol-1-yl)ethyl 2,4-Dichlorobenzoate] | ≤ 0.005 µM | 2.6 ± 0.03 µM | – | – | – |
| OC(Cn1cncn1)(Cn1cncn1)c1ccc(F)cc1F [Fluconazole, fluconazole, reference compound] | 0.141 ± 0.021 µM | – | – | – | – |
| O=C(OC(Cn1ccnc1)c1ccccc1)c1cccc(C(F)(F)F)c1 (centres unmarked) [Compound 2c] | – | – | 53.5 ± 6.4% | 53.5 ± 6.4% | – |
| CCC(C)n1ncn(-c2ccc(N3CCN(c4ccc(OCC5COC(Cn6cncn6)(c6ccc(Cl)cc6Cl)O5)cc4)CC3)cc2)c1=O (centres unmarked) [itraconazole] | – | – | – | – | EC50 [4]: ≤ 0.01 µM |
| Clc1ccc(-n2ccc(C(c3ccccc3)n3ccnc3)c2)cc1 (centres unmarked) [Compound 2h] | – | – | 49 ± 9.9% | 49 ± 9.9% | – |
| COc1ccc([C@@H](Cn2ccnc2)OC(=O)c2cccc(C(F)(F)F)c2)cc1 [Compound 3b, (S)-2-(1H-Imidazol-1-yl)-1-(4-methoxyphenyl)ethyl 3-(Trifluoromethyl)benzoate] | – | 24 ± 0.9 µM | – | – | EC50 ([2]; supplement CSV): 24.8 ± 0.9 µM |
| COc1ccc(C(Cc2ccc(Cl)cc2)n2ccnc2)cc1 (centres unmarked) [Compound 2f] | – | – | 54.5 ± 0.7% | 54.5 ± 0.7% | – |
| O=C(O[C@H](Cn1ccnc1)c1ccc(F)cc1)c1cc(Cl)cc(Cl)c1 [Compound 4b, (S)-1-(4-Fluorophenyl)-2-(1H-imidazol-1-yl)ethyl 3,5-Dichlorobenzoate] | – | 4.8 ± 0.05 µM | – | – | – |
| O=C(O[C@H](Cn1cncn1)c1ccc(F)cc1)c1cccc(C(F)(F)F)c1 [Compound 7, (S)-1-(4-Fluorophenyl)-2-(1H-1,2,4-triazol-1-yl)ethyl 3-(Trifluoromethyl)benzoate] | 0.087 ± 0.01 µM | 20.6 ± 0.04 µM | – | – | – |
| O=C(O)c1cccc(C(F)(F)F)c1 [3-trifluoro benzoic acid] | – | – | – | – | circulating metabolite of 2a ([5]; after 2a 20 mg/kg intraperitoneally): one of the main circulating metabolites for up to 24 h |
| O=C(OC(Cn1ccnc1)c1ccc(F)cc1)c1cccc(C(F)(F)F)c1 (centres unmarked) [Compound 2a] | 0.088 ± 0.004 µM | – | 51.5 ± 13.4% | 51.5 ± 13.4% | inhibition at 10 µM ([3]; read-out: % inhibition at 10 μM, 10 μM, N. fowleri KUL strain): ~50%; concentration at 30 min ([5]; brain): 100 ng/g; concentration at 30 min ([5]; plasma): 4 ng/mL |
| COc1ccc(C(Cc2ccc(-n3cccc3)cc2)n2ccnc2)cc1 (centres unmarked) [Compound 2i] | – | – | 37.5 ± 30.4% | 37.5 ± 30.4% | – |
| COc1ccc(CC(c2ccc(OC)cc2)n2ccnc2)cc1 (centres unmarked) [Compound 2e] | – | – | 49.5 ± 6.4% | 49.5 ± 6.4% | – |
| Clc1cc(Cl)cc(CO[C@H](Cn2ccnc2)c2ccc(Cl)cc2Cl)c1 [Compound 10b, (S)-1-(2-((3,5-Dichlorobenzyl)oxy)-2-(2,4-dichlorophenyl)ethyl)-1H-imidazole] | ≤ 0.005 µM | 3.5 ± 0.01 µM | – | – | – |
| O=C(Nc1ccc(N2CCN(c3ccc(Cl)cc3)CC2)cc1)OC(Cn1ccnc1)c1ccc(F)cc1 (centres unmarked) [Compound 2d] | – | – | 66.5 ± 3.5% | 66.5 ± 3.5% | – |
| COc1ccc([C@H](Cn2ccnc2)OC(=O)c2cccc(C(F)(F)F)c2)cc1 [Compound 3a, (R)-2-(1H-Imidazol-1-yl)-1-(4-methoxyphenyl)ethyl 3-(Trifluoromethyl)benzoate] | – | – | – | – | inhibition at 50 µM ([2]; read-out: % inhibition at 50 μM): 69% |
| Clc1ccc(COC(Cn2ccnc2)c2ccc(Cl)cc2Cl)c(Cl)c1 (centres unmarked) [Compound 1, miconazole] | – | – | – | – | elimination half-life [6]: 24 h; Kd [1]: ≤ 0.005 µM |
| Clc1ccc(C(c2ccn(-c3ccc(Cl)cc3)c2)n2ccnc2)cc1 (centres unmarked) [Compound 2g] | – | – | 47 ± 7.1% | 47 ± 7.1% | – |
| O=C(O[C@H](Cn1ccnc1)c1ccc(Cl)cc1Cl)c1cccc(C(F)(F)F)c1 [Compound 5b, (S)-1-(2,4-Dichlorophenyl)-2-(1H-imidazol-1-yl)ethyl 3-(Trifluoromethyl)benzoate] | 0.07 ± 0.002 µM | 4.3 ± 0.05 µM | – | – | – |
| Fc1ccc([C@@H](Cn2ccnc2)OCc2cc(Cl)cc(Cl)c2)cc1 [Compound 8b, (S)-1-(2-((3,5-Dichlorobenzyl)oxy)-2-(4-fluorophenyl)ethyl)-1H-imidazole] | 0.007 ± 0.002 µM | 2.4 ± 0.04 µM | – | – | brain/plasma (B/P) ([7]; 1 h): 0.35; Kp at 1 h [7, 13]: 0.43 ± 0.08; Kp at 1 h ([7]; brain/plasma (B/P)): 0.51 |
| FC(F)(F)c1cccc(CO[C@H](Cn2ccnc2)c2ccc(Cl)cc2Cl)c1 [Compound 9b, (S)-1-(2-(2,4-Dichlorophenyl)-2-((3-(trifluoromethyl)benzyl)oxy)ethyl)-1H-imidazole] | ≤ 0.005 µM | 1.5 ± 0.02 µM | – | – | average brain distribution coefficient (brain/plasma ratio) ([7]; 1 h): ~1; brain/plasma (B/P) ([7]; 1 h): 1.14; Kp at 1 h [7, 13]: 1.02 ± 0.12; Kp at 1 h ([7]; brain/plasma (B/P)): 0.89 |
| CC[C@@H]([C@H](C)O)n1ncn(-c2ccc(N3CCN(c4ccc(OC[C@@H]5CO[C@@](Cn6cncn6)(c6ccc(F)cc6F)C5)cc4)CC3)cc2)c1=O [Posaconazole] | – | – | – | – | EC50 [4]: ≤ 0.01 µM; mice cured [8]: two of six mice cured |
